Experimental data: PMC8761492 (Life Science Alliance, 2022)
Starred links: 1 amine or outer side, 2 acyl side, 3 side chain; linkers in the order of their positions; H or OH if unused. Positions of bridges follow the written chain, without caps; N, C: chain ends. Non-standard residues stand in square brackets, D forms with d. Residues, ends and D or L forms follow the SMILES beside them. *: point of attachment. X1 = CC[C@H](C)[C@@H](N[*:1])[C@@H](O)CC(=O)O[C@H](C(=O)[C@H](C)C(=O)[*:2])C(C)C; NMeY = CN[C@@H](Cc1ccc(O)cc1)C(=O)O; dNMeL = CN[C@H](CC(C)C)C(=O)O; Pyruvoyl = CC(=O)C(=O)*

Key:
Test in all cases: microbe, parasite or virus in culture
Format in all cases: cell-based
Conditions in all cases: Severe acute respiratory syndrome coronavirus 2, HeLa-ACE2, 48 h
SARS-CoV-2 ο (B.1.1.529) = system: SARS-CoV-2 ο (B.1.1.529)
SARS-CoV-2 β (B.1.351) = system: SARS-CoV-2 β (B.1.351)
SARS-CoV-2 α (B.1.1.7) = system: SARS-CoV-2 α (B.1.1.7)
SARS-CoV-2 μ (B.1.621) = system: SARS-CoV-2 μ (B.1.621)
SARS-CoV-2 δ (B.1.617.2) = system: SARS-CoV-2 δ (B.1.617.2)

Q: What does the source list for `CC[C@H](C)[C@H]1NC(=O)[C@@H](NC(=O)[C@@H](CC(C)C)N(C)C(=O)[C@@H]2CCCN2C(=O)C(C)=O)[C@@H](C)OC(=O)[C@H](Cc2ccc(OC)cc2)N(C)C(=O)[C@@H]2CCCN2C(=O)[C@H](CC(C)C)NC(=O)[C@@H](C)C(=O)[C@H](C(C)C)OC(=O)C[C@@H]1O` [Plitidepsin] (Pyruvoyl-P[dNMeL]T[X1]LP[NMeY](Me); ester 3-C)?
A: IC50 (SARS-CoV-2 ο (B.1.1.529); read-out: Antiviral IC50): 0.291 nM; IC90 (SARS-CoV-2 ο (B.1.1.529); read-out: Antiviral IC90): 0.887 nM; IC50 (SARS-CoV-2 β (B.1.351); read-out: Antiviral IC50): 0.077 nM; IC90 (SARS-CoV-2 β (B.1.351); read-out: Antiviral IC90): 0.419 nM; IC50 (SARS-CoV-2 α (B.1.1.7); read-out: Antiviral IC50): 0.052 nM; IC90 (SARS-CoV-2 α (B.1.1.7); read-out: Antiviral IC90): 0.161 nM; IC50 (SARS-CoV-2 μ (B.1.621); read-out: Antiviral IC50): 0.266 nM; IC90 (SARS-CoV-2 μ (B.1.621); read-out: Antiviral IC90): 1.03 nM; IC50 (SARS-CoV-2 δ (B.1.617.2); read-out: Antiviral IC50): 0.089 nM; IC90 (SARS-CoV-2 δ (B.1.617.2); read-out: Antiviral IC90): 0.511 nM
